Source: ChEMBL document CHEMBL4304790, “Successful Strategies for Mitigation of a Preclinical Signal for Phototoxicity in a DGAT1 Inhibitor” (ACS Med Chem Lett, 2019)
In brackets after ≈: the same amount, converted by molar mass. Counter-ions that a name gives are not always drawn. Activity calls are given as the source filed them. The rule behind the calls is not given here.

What was measured:
[1] = target: T1, Diacylglycerol O-acyltransferase 1 (Mus musculus, UniProt Q9Z2A7); test: (§1) Inhibition of DGAT1 in mouse C2C12 cells assessed as reduction in intracellular triglyceride production incubated for 2 hrs in presence of BSA-complexed oleate by LC/MS/MS analysis; assay type: cell-based
T1 sequence (Q9Z2A7 whole entry): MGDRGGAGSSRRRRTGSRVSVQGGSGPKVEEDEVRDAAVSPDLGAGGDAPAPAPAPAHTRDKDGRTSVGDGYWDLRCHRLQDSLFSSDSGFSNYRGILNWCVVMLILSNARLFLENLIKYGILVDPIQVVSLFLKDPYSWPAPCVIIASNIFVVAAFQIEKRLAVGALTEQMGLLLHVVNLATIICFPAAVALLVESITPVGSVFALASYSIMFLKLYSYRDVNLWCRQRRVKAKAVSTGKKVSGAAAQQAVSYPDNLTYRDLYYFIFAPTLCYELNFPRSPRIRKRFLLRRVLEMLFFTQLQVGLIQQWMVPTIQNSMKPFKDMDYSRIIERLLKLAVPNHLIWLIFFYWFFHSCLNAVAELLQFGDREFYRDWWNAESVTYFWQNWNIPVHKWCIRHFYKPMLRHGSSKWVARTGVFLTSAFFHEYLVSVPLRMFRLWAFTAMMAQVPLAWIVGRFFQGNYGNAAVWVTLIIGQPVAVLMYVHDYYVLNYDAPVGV

[2] = Photo irritation factor, ratio of IC50 for cytotoxicity against BALB/c mouse 3T3 cells pretreated for 1 hr prior to 50 mins incubation in dark conditions followed by further incubation in DMEM medium for 20 to 22 hrs to IC50 for cytotoxicity against BALB/c mouse 3T3 cells pretreated for 1 hr prior to irradiation with UVA for 50 mins followed by further in DMEM medium incubation for 20 to 22 hrs …; assay type: cell-based; settings: BALB/c 3T3 cells
[3] = Dissociation constant, pKa of compound; assay type: physicochemical
[4] = Lipophilicity, log D of the compound at pH 7.4; assay type: physicochemical; settings: buffer
[5] = target: T2, Diacylglycerol O-acyltransferase 1 (Mus musculus) (UniProt Q9Z2A7); test: as §1; assay type: cell-based
T2 sequence (whole entry): T1 sequence (Q9Z2A7 whole entry)

[6] = target: T3, Diacylglycerol O-acyltransferase 1 (Homo sapiens) (UniProt O75907); test: (§2) Inhibition of recombinant human his-tagged DGAT1 expressed in Sf9 insect cells using oleoyl-CoA and diolein as substrates incubated for 30 mins by LC/MS/MS analysis
T3 sequence (whole entry): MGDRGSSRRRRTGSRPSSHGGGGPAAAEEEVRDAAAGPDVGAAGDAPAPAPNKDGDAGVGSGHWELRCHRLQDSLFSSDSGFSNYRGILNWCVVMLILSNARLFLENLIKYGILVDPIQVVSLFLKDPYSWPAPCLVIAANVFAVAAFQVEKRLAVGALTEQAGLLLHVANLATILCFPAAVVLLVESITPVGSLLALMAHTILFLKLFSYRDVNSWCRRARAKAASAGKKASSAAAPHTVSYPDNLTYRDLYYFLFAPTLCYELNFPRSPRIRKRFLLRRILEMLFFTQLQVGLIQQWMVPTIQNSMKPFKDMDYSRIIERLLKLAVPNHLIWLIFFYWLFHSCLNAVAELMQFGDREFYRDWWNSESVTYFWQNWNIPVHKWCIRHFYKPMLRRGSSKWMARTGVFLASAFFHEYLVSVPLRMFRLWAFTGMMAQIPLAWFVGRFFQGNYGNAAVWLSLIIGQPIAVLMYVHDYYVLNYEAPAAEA

[7] = Permeability across basolateral to apical side in human Caco2 cells; assay type: ADME, cell-based; settings: Caco-2, read-out: permeability
[8] = Protein binding in rat plasma; assay type: ADME, cell-free; settings: read-out: PPB (converted)
[9] = Clearance in Sprague-Dawley rat at 0.5 mg/kg, iv measured upto 24 hrs; assay type: ADME, organism-based; settings: in vivo
[10] = AUC (0 to 24 hrs) in Sprague-Dawley rat at 0.5 mg/kg, iv measured upto 24 hrs; assay type: ADME, organism-based; design: time < 24 hr, dose 0.5 mg/kg, route intravenous; settings: in vivo
Rattus norvegicus [11] = species on record: Rattus norvegicus; settings: Sprague-Dawley, 5 mg/kg
[12] = Drug uptake in plasma of Sprague-Dawley rat lipid bolus model at 5 mg/kg, po administered via gavage 4 hrs prior to lipid challenge and measured upto 8 hrs post compound dose by LC-MS/MS analysis; assay type: ADME, organism-based; settings: in vivo
[13] = Oral bioavailability in Sprague-Dawley rat at 1.5 mg/kg measured upto 24 hrs; assay type: ADME, organism-based; settings: in vivo
[14] = Volume of distribution in Sprague-Dawley rat at 0.5 mg/kg, iv measured upto 24 hrs; assay type: ADME, organism-based; settings: in vivo
[15] = Cmax in Sprague-Dawley rat at 1.5 mg/kg, po measured upto 24 hrs; assay type: ADME, organism-based; design: dose 1.5 mg/kg, route oral; settings: in vivo
[16] = AUC (0 to 24 hrs) in Sprague-Dawley rat at 1.5 mg/kg, po measured upto 24 hrs; assay type: ADME, organism-based; design: time < 24 hr, dose 1.5 mg/kg, route oral; settings: in vivo
[17] = Solubility of compound at pH 6.8; assay type: physicochemical; settings: buffer
[18] = Toxicity in preclinical models assessed as GI tolerability
[19] = Half life in Sprague-Dawley rat at 0.5 mg/kg, iv measured upto 24 hrs; assay type: ADME, organism-based; settings: in vivo
[20] = Permeability across apical to basolateral side in human Caco2 cells; assay type: ADME, cell-based; settings: Caco-2, read-out: permeability
[21] = Tmax in Sprague-Dawley rat at 1.5 mg/kg, po measured upto 24 hrs; assay type: ADME, organism-based; settings: in vivo
[22] = Efflux ratio of permeability across basolateral to apical side over apical to basolateral side in human Caco2 cells; assay type: ADME, cell-based; settings: Caco-2
[23] = AUC (0 to 24 hrs) in Sprague-Dawley rat at 5 mg/kg, po measured upto 24 hrs; assay type: ADME, organism-based; design: dose 5 mg/kg, time < 24 hr, route oral; settings: in vivo
[24] = Volume of distribution in Sprague-Dawley rat at 1 mg/kg, iv measured upto 24 hrs; assay type: ADME, organism-based; settings: in vivo
[25] = Oral bioavailability in Sprague-Dawley rat at 5 mg/kg measured upto 24 hrs; assay type: ADME, organism-based; settings: in vivo
[26] = Cmax in Sprague-Dawley rat at 5 mg/kg, po measured upto 24 hrs; assay type: ADME, organism-based; design: dose 5 mg/kg, route oral; settings: in vivo
[27] = Clearance in Sprague-Dawley rat at 1 mg/kg, iv measured upto 24 hrs; assay type: ADME, organism-based; settings: in vivo
[28] = Tmax in Sprague-Dawley rat at 5 mg/kg, po measured upto 24 hrs; assay type: ADME, organism-based; settings: in vivo
[29] = Half life in po dosed human plasma administered as single dose; assay type: ADME, organism-based
Rattus norvegicus [30] = test: Antihyperlipidemic activity in Sprague-Dawley rat lipid bolus model assessed as reduction in plasma triglyceride excursion at 5 mg/kg, po administered via gavage 4 hrs prior to lipid challenge and measured upto 8 hrs post compound dose by GPO-Trinder method relative to control; assay type: functional
[31] = target: T4, Diacylglycerol O-acyltransferase 1 (Homo sapiens, UniProt O75907); test: as §2
T4 sequence (O75907 whole entry): T3 sequence (whole entry)

[32] = AUC (0 to 24 hrs) in Sprague-Dawley rat at 1 mg/kg, iv measured upto 24 hrs; assay type: ADME, organism-based; design: dose 1 mg/kg, time < 24 hr, route intravenous; settings: in vivo
[33] = Half life in Sprague-Dawley rat at 1 mg/kg, iv measured upto 24 hrs; assay type: ADME, organism-based; settings: in vivo

O=C(O)C[C@H]1CC[C@H](c2ccc(-c3ccc(Nc4nnc(C5CCC5)s4)cn3)cc2)CC1
EC50 [1]: 8 nM

CCc1nc(C)c(C(=O)Nc2ccc(-c3ccc([C@H]4CC[C@H](CC(=O)O)CC4)cc3)nc2)o1
selectivity ratio [2]: 1 | EC50 [1]: 8 nM

CC(C)c1nnc(Nc2ccc(-c3ccc(N4CCC(CC(=O)O)CC4)cc3)nc2)o1
pKa [3]: 3.8 | logD [4]: 0.7 | EC50 [1]: 2300 nM

O=C(O)C[C@H]1CC[C@H](c2ccc(-c3ccc(Nc4nnc(C5CCC5)o4)cn3)cc2)CC1
logD [4]: 2.8 | EC50 [1]: 12 nM

CC(C)(C)c1nnc(Nc2ccc(-c3ccc([C@H]4CC[C@H](CC(=O)O)CC4)cc3)nc2)o1
inhibition [5]: Active | inhibition [6]: Active

CCc1nc(C)c(C(=O)Nc2ccc(-c3ccc(C45CCC(CC(=O)O)(CC4)OC5)cc3)cc2)o1
Papp B→A [7]: 7.7 ×10⁻⁶ cm/s | fraction unbound [8]: < 0.01 | clearance [9]: 0.2 mL/min/kg | AUC(0-t) at 24 h [10]: 51.4 µM·h | inhibition (Rattus norvegicus [11]): Active | Drug uptake [12]: Active | bioavailability [13]: > 100% | Vd [14]: 0.3 L/kg | Cmax [15]: 28 µM | AUC(0-t) at 24 h [16]: 180 µM·h | solubility [17]: 13 µM (≈ 6.17 µg/mL) | Activity [18]: Non-Toxic | half-life [19]: 20 h | Papp A→B [20]: 18.3 ×10⁻⁶ cm/s | Tmax [21]: 3 h

CCc1nnc(Nc2ccc(-c3ccc([C@H]4CC[C@H](CC(=O)O)CC4)cc3)nc2)o1
EC50 [1]: 27 nM

Cc1nnc(Nc2ccc(-c3ccc([C@H]4CC[C@H](CC(=O)O)CC4)cc3)nc2)o1
EC50 [1]: 206 nM

COc1ccc2nc(Nc3ccc(-c4ccc([C@H]5CC[C@H](CC(=O)O)CC5)cc4)nc3)oc2c1
selectivity ratio [2]: 17

O=C(O)C[C@H]1CC[C@H](c2ccc(-c3ccc(Nc4ccc(C(F)(F)F)nc4)cn3)cc2)CC1
Papp B→A [7]: 2.3 ×10⁻⁶ cm/s | fraction unbound [8]: 0.003 | selectivity ratio [2]: 56 | efflux ratio [22]: 0.28 | AUC(0-t) at 24 h [23]: 190 µM·h | Vd [24]: 0.1 L/kg | bioavailability [25]: 83% | Cmax [26]: 42 µM | clearance [27]: 1 mL/min/kg | pKa [3]: 4.1 | logD [4]: 3.6 | EC50 [1]: 71 nM | Tmax [28]: 0.7 h | solubility [17]: < 5 µM | half-life [29]: 125 h | inhibition in vivo at 5 mg/kg (Rattus norvegicus [30]): 50 to 70% | Activity [18]: Non-Toxic | IC50 [31]: 55 nM | AUC(0-t) at 24 h [32]: 46 µM·h | half-life [33]: 5.1 h | Papp A→B [20]: 8.1 ×10⁻⁶ cm/s

O=C(O)CC12CCC(c3ccc(-c4ccc(Nc5nnc(C6CCC6)o5)cn4)cc3)(CC1)CO2
pKa [3]: 3.9 | logD [4]: 1.5

CN(C)CCCN1c2ccccc2Sc2ccc(Cl)cc21 [CHLORPROMAZINE HYDROCHLORIDE]
selectivity ratio [2]: > 6

O=C(O)CC12CCC(c3ccc(-c4ccc(Nc5nnc(C6CCC6)o5)cc4)cc3)(CC1)CO2
Papp B→A [7]: 11.8 ×10⁻⁶ cm/s | fraction unbound [8]: < 0.01 | clearance [9]: 3.5 mL/min/kg | AUC(0-t) at 24 h [10]: 5.16 µM·h | inhibition (Rattus norvegicus [11]): Active | Drug uptake [12]: Active | bioavailability [13]: > 100% | Vd [14]: 0.7 L/kg | Cmax [15]: 6.1 µM | AUC(0-t) at 24 h [16]: 25.8 µM·h | logD [4]: 2.4 | solubility [17]: < 5 µM | Activity [18]: Non-Toxic | half-life [19]: 3.2 h | Papp A→B [20]: 5.9 ×10⁻⁶ cm/s | Tmax [21]: 1 h
